Results: ChEMBL document CHEMBL4261621, “Synthesis of enamino-2-oxindoles via conjugate addition between α-azido ketones and 3-alkenyl oxindoles: Cytotoxicity evaluation and apoptosis inducing studies” (Bioorg Med Chem Lett, 2018)
Calls of active or inactive are those of the source. The calls are words filed in the database; no cut-off is given here.

Key:
HCT-116 = test: Cytotoxicity against human HCT116 cells at 30 uM after 48 hrs by MTT assay relative to control; assay type: functional
MDA-MB-231 [1] = test: Cytotoxicity against human MDA-MB-231 cells at 30 uM after 48 hrs by MTT assay relative to control; assay type: functional
HeLa [2] = test: Cytotoxicity against human HeLa cells at 30 uM after 48 hrs by MTT assay relative to control; assay type: functional
HCT-15 = test: Cytotoxicity against human HCT15 cells after 72 hrs by MTT assay; assay type: functional, cell-based; conditions: HCT-15, 72 h
MDA-MB-231 [3] = test: Cytotoxicity against human MDA-MB-231 cells after 72 hrs by MTT assay; assay type: functional, cell-based; conditions: MDA-MB-231, 72 h
HeLa [4] = test: Cytotoxicity against human HeLa cells after 72 hrs by MTT assay; assay type: functional, cell-based
NCI-H460 [5] = test: Cytotoxicity against human NCI-H460 cells assessed as reduction in cell viability after 72 hrs by phase contrast microscopic analysis; assay type: functional, cell-based
NCI-H460 [6] = test: Induction of apoptosis in human NCI-H460 cells assessed as apoptotic body formation at 0.25 to 10 uM after 72 hrs by acridine orange/ethidium bromide staining based fluorescence microscopic analysis; assay type: functional, cell-based
NCI-H460 [7] = test: Induction of apoptosis in human NCI-H460 cells assessed as membrane blebbing at 0.25 to 10 uM after 72 hrs by acridine orange/ethidium bromide staining based fluorescence microscopic analysis; assay type: functional, cell-based
NCI-H460 [8] = test: Induction of apoptosis in human NCI-H460 cells assessed as appearance of horse-shoe shaped nuclei at 0.25 to 10 uM after 72 hrs by DAPI staining based fluorescence microscopic analysis; assay type: functional, cell-based
NCI-H460 [9] = test: Induction of apoptosis in human NCI-H460 cells assessed as appearance of condensed nuclei at 0.25 to 10 uM after 72 hrs by DAPI staining based fluorescence microscopic analysis; assay type: functional, cell-based
NCI-H460 [10] = test: Induction of mitochondrial membrane potential loss in human NCI-H460 cells assessed as increase in depolarized cell population after 72 hrs by JC1 staining based flow cytometry; assay type: functional
NCI-H460 [11] = test: Induction of mitochondrial membrane potential loss in human NCI-H460 cells assessed as depolarized cell population at 2.5 uM after 72 hrs by JC1 staining based flow cytometry (reference value: 11.63%); assay type: functional
NCI-H460 [12] = test: Induction of mitochondrial membrane potential loss in human NCI-H460 cells assessed as depolarized cell population at 10 uM after 72 hrs by JC1 staining based flow cytometry (reference value: 11.63%); assay type: functional
NCI-H460 [13] = test: Induction of apoptosis in human NCI-H460 cells assessed as late apoptotic cells at 1 uM after 72 hrs by Annexin V-alexa fluor 488/propidium iodide staining based flow cytometry (reference value: 0.34%); assay type: functional
NCI-H460 [14] = test: Induction of apoptosis in human NCI-H460 cells assessed as necrotic cells at 1 uM after 72 hrs by Annexin V-alexa fluor 488/propidium iodide staining based flow cytometry (reference value: 0.34%); assay type: functional
NCI-H460 [15] = test: Induction of apoptosis in human NCI-H460 cells assessed as viable cells at 2.5 uM after 72 hrs by Annexin V-alexa fluor 488/propidium iodide staining based flow cytometry (reference value: 98.55%); assay type: functional; conditions: NCI-H460, 72 h, read-out: Activity
NCI-H460 [16] = test: Induction of apoptosis in human NCI-H460 cells assessed as early apoptotic cells at 2.5 uM after 72 hrs by Annexin V-alexa fluor 488/propidium iodide staining based flow cytometry (reference value: 0.77%); assay type: functional
NCI-H460 [17] = test: Induction of apoptosis in human NCI-H460 cells assessed as late apoptotic cells at 2.5 uM after 72 hrs by Annexin V-alexa fluor 488/propidium iodide staining based flow cytometry (reference value: 0.34%); assay type: functional
NCI-H460 [18] = test: Induction of apoptosis in human NCI-H460 cells assessed as late apoptotic cells at 5 uM after 72 hrs by Annexin V-alexa fluor 488/propidium iodide staining based flow cytometry (reference value: 0.34%); assay type: functional
NCI-H460 [19] = test: Induction of apoptosis in human NCI-H460 cells assessed as necrotic cells at 5 uM after 72 hrs by Annexin V-alexa fluor 488/propidium iodide staining based flow cytometry (reference value: 0.34%); assay type: functional
NCI-H460 [20] = test: Induction of apoptosis in human NCI-H460 cells assessed as early apoptotic cells at 10 uM after 72 hrs by Annexin V-alexa fluor 488/propidium iodide staining based flow cytometry (reference value: 0.77%); assay type: functional
NCI-H460 [21] = test: Induction of apoptosis in human NCI-H460 cells assessed as necrotic cells at 10 uM after 72 hrs by Annexin V-alexa fluor 488/propidium iodide staining based flow cytometry (reference value: 0.34%); assay type: functional
NCI-H460 [22] = test: Inhibition of colony formation in human NCI-H460 cells supplemented with fresh medium containing compounds every 3 days measured after 7 days by crystal violet staining based assay; assay type: functional, cell-based
NCI-H460 [23] = test: Cell cycle arrest in human NCI-H460 cells assessed as accumulation at sub-G1 phase at 1 uM after 24 hrs by propidium iodide staining based flow cytometry (reference value: 0.99%); assay type: functional
NCI-H460 [24] = test: Cell cycle arrest in human NCI-H460 cells assessed as accumulation at G0/G1 phase at 1 uM after 24 hrs by propidium iodide staining based flow cytometry (reference value: 49.6%); assay type: functional
NCI-H460 [25] = test: Cell cycle arrest in human NCI-H460 cells assessed as accumulation at G2/M phase at 1 uM after 24 hrs by propidium iodide staining based flow cytometry (reference value: 35.49%); assay type: functional
NCI-H460 [26] = test: Cell cycle arrest in human NCI-H460 cells assessed as accumulation at sub-G1 phase at 2.5 uM after 24 hrs by propidium iodide staining based flow cytometry (reference value: 0.99%); assay type: functional
NCI-H460 [27] = test: Cell cycle arrest in human NCI-H460 cells assessed as accumulation at G0/G1 phase at 2.5 uM after 24 hrs by propidium iodide staining based flow cytometry (reference value: 49.6%); assay type: functional
NCI-H460 [28] = test: Cell cycle arrest in human NCI-H460 cells assessed as accumulation at S phase at 2.5 uM after 24 hrs by propidium iodide staining based flow cytometry (reference value: 9.93%); assay type: functional
NCI-H460 [29] = test: Cell cycle arrest in human NCI-H460 cells assessed as accumulation at G2/M phase at 2.5 uM after 24 hrs by propidium iodide staining based flow cytometry (reference value: 35.49%); assay type: functional
NCI-H460 [30] = test: Cell cycle arrest in human NCI-H460 cells assessed as accumulation at G0/G1 phase at 5 uM after 24 hrs by propidium iodide staining based flow cytometry (reference value: 49.6%); assay type: functional
NCI-H460 [31] = test: Cell cycle arrest in human NCI-H460 cells assessed as accumulation at G2/M phase at 5 uM after 24 hrs by propidium iodide staining based flow cytometry (reference value: 35.49%); assay type: functional
NCI-H460 [32] = test: Cell cycle arrest in human NCI-H460 cells assessed as accumulation at sub-G1 phase at 10 uM after 24 hrs by propidium iodide staining based flow cytometry (reference value: 0.99%); assay type: functional
NCI-H460 [33] = test: Cell cycle arrest in human NCI-H460 cells assessed as accumulation at G0/G1 phase at 10 uM after 24 hrs by propidium iodide staining based flow cytometry (reference value: 49.6%); assay type: functional
NCI-H460 [34] = test: Cell cycle arrest in human NCI-H460 cells assessed as accumulation at G2/M phase at 10 uM after 24 hrs by propidium iodide staining based flow cytometry (reference value: 35.49%); assay type: functional

## CCOC(=O)/C(=C(\N)C(=O)c1ccccc1)C1C(=O)N(C)c2ccc(F)cc21 (stereo unspecified)
HCT-116
  Activity: >50%
MDA-MB-231 [1]
  Activity: >50%
HeLa [2]
  Activity: >50%
HCT-15
  IC50: 2970 nM
MDA-MB-231 [3]
  IC50: 6.27 µM
HeLa [4]
  IC50: 2990 nM
NCI-H460 [5]
  Activity: Dose-dependent effect
NCI-H460 [6]
  Activity: Active
NCI-H460 [7]
  Activity: Active
NCI-H460 [8]
  Activity: Active
NCI-H460 [9]
  Activity: Active
NCI-H460 [10]
  Activity: Dose-dependent effect
NCI-H460 [11]
  Activity: 71.6%
NCI-H460 [12]
  Activity: 90.49%
NCI-H460 [13]
  Activity: 3.15%
NCI-H460 [14]
  Activity: 0.24%
NCI-H460 [15]
  viability at 2.5 µM: 75.9%
NCI-H460 [16]
  Activity: 19.4%
NCI-H460 [17]
  Activity: 4.4%
NCI-H460 [18]
  Activity: 3.27%
NCI-H460 [19]
  Activity: 0.21%
NCI-H460 [20]
  Activity: 57.78%
NCI-H460 [21]
  Activity: 0.03%
NCI-H460 [22]
  inhibition: Dose-dependent effect
NCI-H460 [23]
  Activity: 9.93%
NCI-H460 [24]
  Activity: 9.77%
NCI-H460 [25]
  Activity: 61.59%
NCI-H460 [26]
  Activity: 9.91%
NCI-H460 [27]
  Activity: 9.73%
NCI-H460 [28]
  Activity: 64.98%
NCI-H460 [29]
  Activity: 64.03%
NCI-H460 [30]
  Activity: 11.17%
NCI-H460 [31]
  Activity: 65.46%
NCI-H460 [32]
  Activity: 11.66%
NCI-H460 [33]
  Activity: 9.18%
NCI-H460 [34]
  Activity: 67.37%
